Measured values: PMC3625062 (MedChemComm, 2012)
Blank lines part the entries; values can stand above or below the molecule they belong to.

How the values were obtained:
PDE10A = PDE10A (Homo sapiens, UniProt Q9Y233); assay: PDE10A inhibition, [3H]cAMP hydrolysis scintillation proximity assay; type: biochemical
R6/2 mice = settings: behavioural symptoms such as rotarod performance improved; cited from earlier work

PDE10A, sequence (Q9Y233 whole entry): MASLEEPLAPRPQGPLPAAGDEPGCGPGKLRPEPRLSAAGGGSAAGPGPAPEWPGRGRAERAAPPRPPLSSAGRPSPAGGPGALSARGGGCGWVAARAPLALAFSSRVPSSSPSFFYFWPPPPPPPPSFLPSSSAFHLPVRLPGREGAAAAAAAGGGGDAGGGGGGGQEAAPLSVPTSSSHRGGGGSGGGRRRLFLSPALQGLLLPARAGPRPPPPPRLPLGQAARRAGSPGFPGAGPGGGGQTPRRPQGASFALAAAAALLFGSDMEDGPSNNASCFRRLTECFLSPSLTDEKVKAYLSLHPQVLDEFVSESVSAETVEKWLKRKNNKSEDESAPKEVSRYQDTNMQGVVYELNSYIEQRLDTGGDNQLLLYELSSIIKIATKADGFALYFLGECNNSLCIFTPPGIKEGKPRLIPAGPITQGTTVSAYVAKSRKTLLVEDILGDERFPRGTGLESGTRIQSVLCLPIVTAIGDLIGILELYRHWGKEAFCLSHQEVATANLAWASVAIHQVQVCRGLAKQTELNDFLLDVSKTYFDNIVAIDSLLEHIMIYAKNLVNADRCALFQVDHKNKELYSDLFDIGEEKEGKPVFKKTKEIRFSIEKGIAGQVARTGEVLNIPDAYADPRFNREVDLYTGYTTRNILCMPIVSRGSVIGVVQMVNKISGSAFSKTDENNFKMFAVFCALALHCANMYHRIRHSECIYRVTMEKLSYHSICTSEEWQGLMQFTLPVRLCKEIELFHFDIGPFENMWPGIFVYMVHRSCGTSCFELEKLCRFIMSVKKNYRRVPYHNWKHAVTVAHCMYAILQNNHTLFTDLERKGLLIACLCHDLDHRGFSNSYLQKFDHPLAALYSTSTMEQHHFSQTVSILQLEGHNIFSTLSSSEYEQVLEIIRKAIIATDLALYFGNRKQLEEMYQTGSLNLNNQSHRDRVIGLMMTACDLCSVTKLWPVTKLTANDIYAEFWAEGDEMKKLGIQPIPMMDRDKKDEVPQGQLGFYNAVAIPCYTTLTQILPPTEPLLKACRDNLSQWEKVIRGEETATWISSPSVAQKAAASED

fold less potent for PDE10A than 10b (PDE10A; IC50 versus the corresponding O-atom bridged analogue 10b): 600 fold
SMILES: COc1cc(CSc2ccc(-c3nn(C)cc3-c3ccncc3)cc2)nc2ccccc12 [Compound 10g]

fold higher PDE10A IC50 value than 11e (PDE10A; IC50 of 8-methoxy 11f versus 7-methoxy 11e): 2 fold
SMILES: COc1cccc2ccc(COc3ccc(-c4c(-c5ccncc5)cnn4C)cc3)nc12 [Compound 11f]

SMILES: FC(F)(F)Cn1cc(-c2ccncc2)c(-c2ccc(OCc3ccc4ccccc4n3)cc2)n1 [TP-10, 2-[4-[pyridin-4-yl-1-(2,2,2-trifluoroethyl)-1H-pyrazol-3-yl]-phenoxymethyl]-quinoline]
neuropathology and symptoms in R6/2 mice (R6/2 mice): ameliorated
